Reference: patent EP0369874A2, “Cardioprotective tocopherol analogs” (MERRELL DOW PHARMACEUTICALS INC., priority 1988, dated 1990)
Values joined by “and” are separate entries in the source; they are usually repeats but may differ in a detail not shown here. Equal entries are not always repeated. Blank lines part the entries; values can stand above or below the compound they belong to.

Experiments:
[1] = Free-radical scavenging: inhibition of autoxidation of 1-epinephrine (Misra and Fridovich); assay type: biochemical; conditions: 1-epinephrine 1 x 10⁻⁴M, EDTA 1 x 10⁻⁴M, 30°C, absorbance at 480; read-out: 50% inhibition of the autoxidation rate (ID₅₀)
Method: 2-(3,4-dihydro-6-hydroxy-2,5,7,8-tetramethyl-2H-1-benzopyran-2-yl)ethyl-N,N,N-trimethylammonium bromide, described in Example 1, was evaluated for its ability to reduce superoxide radicals in an assay described by H.P. Misra and J. Fridovich, 1972, J. Biol. Chem. 247, 3170-5. In this assay, the rate of autoxidation of 1-epinephrine (1 x 10⁻⁴M) in the presence of EDTA (1 x 10⁻⁴M) at 30°C is followed spectrophotometrically following the increase of absorbance at 480 mn. […] For comparison, 3,4-dihydro-6-hydroxy-2,5,7,8-tetramethyl-2H-1-benzopyran-2-carboxylic acid (CAS 53188-07-1) gave ID₅₀= 105 ± 8 µM and d,1-penicillamine (CAS 52-67-5)ID₅₀ = 73 µM in parallel experiments. Misra and Fridovich report that bovine superoxide dismutase gave 50% inhibition at […].

[2] = test system: ligation-induced infarcted and reperfused rats; assay: Cardioprotective effects: coronary ligation 60 min, reperfusion 30 min, infarcted area / area at risk; assay type: in vivo
Method: 2-(3,4-Dihydro-2,5,7,8-tetramethyl-6-methylcarbonyloxy-2H-1-benzopyran-2-yl)ethyl-N,N,N-trimethylammonium bromide was evaluated in ligation-induced infarcted and reperfused rats as follows. One of two groups of rats was infused intravenously with a solution of test compound in saline at a rate of 2.3 ml/h (10 mg/kg/h). The control group was infused with saline at the same rate. After 10 min of drug infusion, coronary arteries were ligated surgically for 60 min, ligation was loosened to allow reperfusion for 30 min. The ligation was […] dye (Evans Blue) was injected. The animals were sacrificed and the heart ventricles were removed and weighed. The unstained tissue was dissected and weighed; this represents the "area at risk". i.e. the area that was deprived of blood supply by ligation. To determine the infarcted area, the tissue was incubated with 2,3,5-triphenyltetrazolium chloride. Infarcted tissue became light colored and could be dissected and weighed. Thus, for each rat that survived the ligation a measurement of "area at risk" and of "infarcted area" was obtained and the ratio was calculated as given in Tables II and III. TABLE II 3,4-Dihydro-2-(2-dimethylaminoethyl)-2,5,7,8-tetramethyl-2H-1-benzopyran-6-yl acetate hydrochloride was evaluated in ligation-induced infarcted and reperfused rats as follows. One of two groups of rats was infused intravenously with a solution of test compound in saline at a rate of 2.3 ml/h (10 mg/kg/h). The control group was infused with saline at the same rate. After 10 min of drug, coronary arteries were ligated surgically for 60 min, ligation was loosened to allow reperfusion for 30 min. The ligation was […] dye (Evans Blue) was injected. The animals were […] heart […] removed and weighed. The unstained tissue was dissected and weighed; this represents the "area at risk", i.e. the area that was deprived of blood supply by ligation. To determine the infarcted area, the tissue was incubated with 2,3,5-triphenyltetrazolium chloride. Infarcted tissue became light colored and was dissected and weighed. Thus, for each rat that survived the ligation a measurement of "area at risk" and of "infarcted area" was obtained and the ratio was calculated as shown in the following tables.

[3] = Affinity for cardiac tissue: radioactivity in heart and blood after intravenous 14C-labelled compound; assay type: in vivo; conditions: rats, 0.91 mg base/kg intravenous
Method: Following the procedure described in Example11, but using ¹⁴C-methyl p-toluenesulfonate in place of "cold material", ¹⁴C-labelled 2-(3,4-dihydro-2,5,7,8-tetramethyl-6-methylcarbonyloxy-2H-1benzopyranan-2-yl)ethyl-N,N,N-tri-¹⁴C-methylammonium p-toluenesulfonate was synthesized. The preparation was diluted with "cold material" to 11.74 µCi/mg base.
24 rats were given 0.91 mg base/kg by inravenous route (by canula into the jugular vein). The animals were sacrificed in groups of 3 at the time periods indicated in Table I. Immediately before sacrifice a 0.5 ml blood sample was taken from an indwelling catheter in the carotid artery. The hearts were removed, blotted and weighed. The samples of tissue and blood were solubilized with Luma Solve (a quarternary ammonium hydroxide preparation) and radioactivity was determined in a scintillation counter.

[4] = treated group, intravenous infusion 10 mg/kg/h, individual rats, listed as 3,4-Dihydro-2-(2-dimethylaminoethyl)-2,5,7,8-tetramethyl-2H-1-benzopyran-6-yl ac, acetate hydrochloride

Compound: Cc1c(C)c2c(c(C)c1O)CCC(C)(C(=O)O)O2 (stereo not shown) [3,4-dihydro-6-hydroxy-2,5,7,8-tetramethyl-2H-1-benzopyran-2-carboxylic acid]
IC50 [1]: 105 ± 8 µM

Compound: CC(=O)Oc1c(C)c(C)c2c(c1C)CCC(C)(CCN(C)C)O2.Cl (stereo not shown) [Example 4, 3,4-Dihydro-2-(2-dimethylaminoethyl)-2,5,7,8-tetramethyl-2H-benzopyran-6-yl acetate hydrochloride]
reduction of infarction ([2]; treated group (10 mg/kg/h) versus saline control group): 48.2% | Ratio % (infarcted tissue / tissue at risk), average ([2]; treated group, intravenous infusion 10 mg/kg/h, group average): 38.0% | Infarcted tissue [2, 4]: 337 mg and 80 mg and 51 mg (2×) and 346 mg and 18 mg and 294 mg and 34 mg | Ratio % (infarcted tissue / tissue at risk) [2, 4]: 70.1% and 40.3% and 10% and 83.2% and 4% and 71.6% and 17.5% and 7.0%

Compound: Cc1c(C)c2c(c(C)c1O)CCC(C)(CC[N+](C)(C)C)O2 (stereo not shown) [Example 10, 2-(3,4-Dihydro-6-hydroxy-2,5,7,8-tetramethyl-2H-1-benzo-pyran-2-yl)ethyl-N,N,N-trimethylammonium bromide]
IC50 [1]: 138 ± 14 µM

Compound: CC(=O)Oc1c(C)c(C)c2c(c1C)CCC(C)(CC[N+](C)(C)C)O2.[Br-] (stereo not shown) [Example 11, 2-(3,4-Dihydro-2,5,7,8-tetramethyl-6-methylcarbonyloxy-2H-1-benzopyran-2-yl)ethyl-N,N,N-trimethylammonium bromide]
Infarcted tissue ([2]; treated group, intravenous infusion 10 mg/kg/h, individual rats): 23 mg and 27 mg and 39 mg and 33 mg

Ratio heart/blood ([3]; 5 min after administration): 3.05±1.46 | ng equiv/ml blood ([3]; 5 min after administration): 0.434±0.351 ng equiv/ml | Ratio heart/blood ([3]; 15 min after administration): 6.90±8.34 | ng equiv/ml blood ([3]; 15 min after administration): 0.590±0.295 ng equiv/ml | Ratio heart/blood ([3]; 30 min after administration): 17.33±5.42 | ng equiv/ml blood ([3]; 30 min after administration): 0.124±0.032 ng equiv/ml | Ratio heart/blood ([3]; 1 hour after administration): 20.09±2.54 | ng equiv/ml blood ([3]; 1 hour after administration): 0.096±0.008 ng equiv/ml | Ratio heart/blood ([3]; 2 hours after administration): 21.90±3.56 | ng equiv/ml blood ([3]; 2 hours after administration): 0.086±0.041 ng equiv/ml | ng equiv/ml blood ([3]; 4 hours after administration): 0.054±0.013 ng equiv/ml | Ratio heart/blood ([3]; 4 hours after administration, listed as 2-(3,4-dihydro-2,5,7,8-tetramethyl-6-methylcarbonyloxy-2H-1benzopyranan-2-yl)eth, p-toluenesulfonate): 27.15 and 27.15±4.30 | Ratio heart/blood ([3]; 6 hours after administration): 18.62±2.77 | ng equiv/ml blood ([3]; 6 hours after administration): 0.048±0.007 ng equiv/ml | Ratio heart/blood ([3]; 8 hours after administration): 15.12±2.69 | ng equiv/ml blood ([3]; 8 hours after administration): 0.048±0.012 ng equiv/ml | concentration of drug in heart tissue ([3]; after 8 h): 0.65 µg equiv/g
Compound: CC(=O)Oc1c(C)c(C)c2c(c1C)CCC(C)(CC[N+](C)(C)C)O2.Cc1ccc(S(=O)(=O)[O-])cc1 (stereo not shown) [Example 18, 2-(3,4-Dihydro-2,5,7,8-tetramethyl-6-methylcarbonyloxy-2H-1-benzopyran-2-yl)ethyl-N,N,N-trimethylammonium p-toluenesulfonate]

Compound: d,1-penicillamine
IC50 [1]: 73 µM
